Key:
[1] = system: human colon cancer CO-04-0032; experiment: In vivo pharmacodynamics, subcutaneous xenograft tumor model of human colon cancer CO-04-0032; parameters: species or system BALB/c nude mice
Procedure: The studies were conducted to examine if the test drugs have in vivo efficacy in the human colon cancer CO-04-0032 animal model and the gastric cancer ST-02-0013 animal model. The descriptions about the animal feeding, feed ingredients, experimental observation, experimental indexes, experimental termination, as well as data analysis in the tests were as follows:
Animal Grouping: The animals were weighed and the tumor volume was measured prior to administration. The animals were randomly grouped according to tumor volume (randomized block design).
Experimental Indexes: The experimental indexes were used to examine whether tumor growth is inhibited, delayed or cured. Tumor diameter was measured twice a week with a vernier caliper. The tumor volume was calculated by the formula: V=0.5a×b^2, wherein a and b represent the long diameter and short diameter of a tumor, respectively. Tumor growth inhibition (TGI) of a compound was evaluated with T-C (day) and T/C (%). […]
Data Analysis: One-way ANOVA was used for comparison of three or more groups. […] All data was analyzed using SPSS 17.0. p<0.05 indicated a significant difference. […]

PI3Kγ = PI3Kγ (Homo sapiens, UniProt P48736); experiment: ADP-Glo Assay II, PI3Kγ; assay type: biochemical; conditions: read-out: IC50 for inhibition of PI3Kγ activity
Procedure: 1) The compound was diluted using Echo from Labcyte company, 50 nL of the compound was transferred into an assay plate, and centrifuged at a speed of 1000 rpm for 10 sec.
2) A kinase/lipid substrate mixed solution and a kinase reaction buffer/lipid substrate mixed solution were prepared; the kinase/lipid substrate mixed solution was added into columns 3-24 of the assay plate, 3 μL per well; the kinase reaction buffer/lipid substrate mixed solution was added into columns 1-2 of the assay plat, 3 μL per well; and the plate was centrifuged at a speed of 1000 rpm for 10 sec.
3) An ATP solution was prepared, and added into the assay plate, 2 μL per well; the plate was centrifuged at a speed of 1000 rpm for 10 sec, shaken and mixed in 2nd gear mode on a plate shaker for 1 min, further centrifuged at a speed of 1000 rpm for 10 sec, and incubated for 120 min at 23° C. […]
5) A kinase detection reagent was prepared, added into the assay plate, 10 μL per well; the plate was centrifuged at a speed of 1000 rpm for 10 sec, shaken and mixed in 2nd gear mode on a plate shaker for 1 min, further centrifuged at a speed of 1000 rpm for 10 sec, incubated for 30 min at 23° C.; and then read on the multi-marker detector Envision.

Chain of PI3Kγ (P48736 whole entry): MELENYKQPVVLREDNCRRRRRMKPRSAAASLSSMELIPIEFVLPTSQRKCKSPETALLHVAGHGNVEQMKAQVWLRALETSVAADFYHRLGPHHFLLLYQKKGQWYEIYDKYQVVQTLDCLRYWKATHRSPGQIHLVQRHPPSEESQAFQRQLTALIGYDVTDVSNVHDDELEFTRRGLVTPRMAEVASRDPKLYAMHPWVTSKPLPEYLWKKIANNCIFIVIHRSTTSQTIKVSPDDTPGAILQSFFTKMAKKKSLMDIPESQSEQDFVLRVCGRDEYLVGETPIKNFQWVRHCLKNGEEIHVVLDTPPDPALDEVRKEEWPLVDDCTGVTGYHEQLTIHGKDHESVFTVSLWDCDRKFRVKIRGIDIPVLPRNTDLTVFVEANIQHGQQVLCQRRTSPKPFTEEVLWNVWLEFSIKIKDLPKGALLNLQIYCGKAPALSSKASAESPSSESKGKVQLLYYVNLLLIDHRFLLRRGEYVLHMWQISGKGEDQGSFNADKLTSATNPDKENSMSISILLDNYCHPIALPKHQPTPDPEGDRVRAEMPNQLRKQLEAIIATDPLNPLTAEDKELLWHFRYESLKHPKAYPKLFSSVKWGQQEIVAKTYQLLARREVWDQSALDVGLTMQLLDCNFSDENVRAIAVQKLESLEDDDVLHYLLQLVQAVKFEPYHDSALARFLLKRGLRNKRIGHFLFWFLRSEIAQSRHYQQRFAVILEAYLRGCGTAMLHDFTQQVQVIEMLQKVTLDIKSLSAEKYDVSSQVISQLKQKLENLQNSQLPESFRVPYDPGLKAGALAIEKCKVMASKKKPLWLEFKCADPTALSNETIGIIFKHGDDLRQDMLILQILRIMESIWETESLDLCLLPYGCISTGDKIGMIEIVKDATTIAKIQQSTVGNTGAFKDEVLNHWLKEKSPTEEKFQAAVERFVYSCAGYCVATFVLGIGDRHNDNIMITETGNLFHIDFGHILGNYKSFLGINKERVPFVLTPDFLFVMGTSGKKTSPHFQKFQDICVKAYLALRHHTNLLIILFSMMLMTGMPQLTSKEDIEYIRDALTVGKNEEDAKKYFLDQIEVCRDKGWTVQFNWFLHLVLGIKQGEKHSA

- IC50 (PI3Kγ): 7 ± 0.9 nM
SMILES: COc1ncc(-c2ccc3ncc(OCCN(C)C)c(=O)n3c2)cc1NS(=O)(=O)c1ccc(F)cc1Cl [Compound 1]
- anti-tumor activity compared to the positive control drug BKM120 ([1]; colon cancer CO-04-0032): more excellent anti-tumor activity
- increase in tumor volume ([1]; from day 15 to day 30 of the administration, CO-04-0032): almost no increase in tumor volume
